The subject of one data set is liver fat content. The settings on record: therapy with lomitapide; cited from earlier work.
Data set [1] addresses T1, human DGAT2 (Homo sapiens, UniProt Q96PD7).
T1 sequence (Q96PD7 1-388): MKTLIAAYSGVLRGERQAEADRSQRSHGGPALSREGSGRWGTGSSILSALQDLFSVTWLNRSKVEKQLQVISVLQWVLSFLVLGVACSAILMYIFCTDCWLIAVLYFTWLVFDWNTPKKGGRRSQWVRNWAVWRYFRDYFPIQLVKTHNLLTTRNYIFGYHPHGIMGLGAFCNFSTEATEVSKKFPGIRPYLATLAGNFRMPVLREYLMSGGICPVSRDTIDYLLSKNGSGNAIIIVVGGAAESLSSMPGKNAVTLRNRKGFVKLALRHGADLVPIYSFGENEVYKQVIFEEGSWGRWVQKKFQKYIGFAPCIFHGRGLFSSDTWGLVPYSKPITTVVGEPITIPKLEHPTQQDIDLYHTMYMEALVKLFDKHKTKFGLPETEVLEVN
Description: Diacylglycerol Acyltransferase 2 (DGAT2) Biochemical Assay. On the set-up: FLAG (N); made in house; host or cells: insect SF9 cells. The settings on record: recombinant human DGAT2 (FLAG tag, SF9), 14C oleoyl-CoA, 1 hr RT; geometric mean. As to the method: Diacylglycerol Acyltransferase 2 (DGAT2) Biochemical Assay
The in vitro inhibitory activity of compounds against human DGAT2 is evaluated in this assay. The assay uses recombinant human DGAT2 with a FLAG tag at the amino terminus, expressed in genetically engineered insect SF9 cells, and purified through affinity chromatography.
DGAT2 catalyzes transfer of an acyl moiety from acyl-Coenzyme A onto diacylglycerol, to form triacylglycerol. In this particular embodiment of the assay oleate is used as the acyl moiety that is transferred. To facilitate miscibility of all lipid components, all lipids used in the assay contain oleyl moiety as the only acyl group. […]
Mix SUV suspensions and compound solution with other components of the assay to achieve the following concentration of individual ingredients: TrisHCl (pH 7.5, 150 mM), sucrose (250 mM), MgCl2 (5 mM), dithiothreitol (DTT) (0.5 mM), oleoyl coenzyme A (oleoyl-CoA) (12 μM), 1-^14C oleoyl coenzyme A (oleyl-CoA-^14C) (8 μM), dioleoyl glycerol (DOG) (0.6 mM), and dioleoyl phosphatidylcholine (DOPC) (1.4 mM), DGAT2 protein (0.5 nM), DMSO (1%, v/v), with test compound concentration within a 1 nM to 100 μM range, in 30 μl total volume. […] Measure the radioactivity using a Perkin-Elmer TopCount instrument. […] Calculate the degree of inhibition of DGAT2 by measuring the radioactivity at 10 different concentrations for each compound. […]

Data set [2] concerns the target T1, human DGAT2. Description: Diacylglycerol Acyltransferase 2 (DGAT2) Cell-Based Assay (HepG2, 13C18-oleate incorporation into triolein). On the set-up: This assay uses human hepatoma cell-line, HepG2, as a source of acyltransferase activity; endogenous in cells; host or cells: HepG2 (human hepatoma). The settings on record: HepG2 cells, 13C18-oleate incorporation into triolein normalized to POPC; geometric mean. As to the method:
Diacylglycerol Acyltransferase 2 (DGAT2) Cell-Based Assay
The inhibitory activity of compounds against human DGAT2 in a cell environment is evaluated in this assay. This assay uses human hepatoma cell-line, HepG2, as a source of acyltransferase activity.
HepG2 cell line is a commonly used model for metabolic reactions that occur in human hepatocytes in vivo. Synthesis of triglyceride in this cell line is followed by measuring incorporation of isotopically labeled oleate into triolein (a triglyceride with 3 oleoyl moieties).
Dispense the HepG2 cells into a 96-well microplate, which has been previously coated with Poly-D-lysine, in an amount of 50,000 cells/well in 100 μL Minimal Essential Media (MEM) with 10% Fetal Bovine Serum (FBS). Incubate the cells for 16 hr at 37° C. Replace the cell culture medium with MEM containing 2% Bovine Serum Albumin Dissolve the test compound in 0.5% DMSO and prepare serial dilutions in half-log increments. Add the serially diluted test compound into separate wells. Incubate for 0.5 hr at 37° C. Thereafter replace the cell culture medium with a medium of the same composition, but which includes 50 μM ^13C18-oleate and 300 μM hydropropyl-β-cyclodextrine. Incubate for an additional 4 hr at 37° C. Discard the cell culture medium by flipping the microplate over thereby draining the wells and then soaking up any residual media from the wells with a paper towel. […]

The subject of the next data set is plasma triglycerides. Description: In Vivo Pharmacodynamic Assay (reduction in plasma triglycerides). The settings on record: Mus musculus, po, male C57BL6 mice, gavage 0.1 to 10 mg/kg with 3 mg/kg DGAT1 inhibitor, tyloxapol. As to the method: In Vivo Pharmacodynamic Assay
This assay measures the potency of compounds by measuring the reduction in plasma triglycerides in mice treated with the test compounds compared to control animals that are treated only with the vehicle solution. Male, C57BL6 mice (10-11 weeks old, each approximately 22 g in weight) are used in this assay.
Triglycerides synthesized in the liver are secreted into circulation as a component of the Very Low Density Lipoprotein (VLDL). To prevent degradation of triglycerides in circulation by the Lipoprotein Lipase (LPL), this assay uses IV injection of a detergent, tyloxapol, which inhibits activity of LPL. Since another enzyme, DGAT1, participates in the synthesis of liver triglyceride, a saturating dose of a DGAT1 inhibitor (sodium{trans-4-[4-(4-amino-7,7-dimethyl-7H-pyrimido[4,5-b][1,4]oxazin-6-yl)phenyl]cyclohexyl}acetate, IUPAC ACDLABS naming convention, see Dow et al. Bioorg. & Med. Chem., (2011) 21(20), 6122-6128) is also used in this assay. […]
Collect the blood via cardiac puncture into tube containing the anti-coagulant EDTA. […] Freeze the plasma samples on dry ice until they are to be analyzed. […] Reduction in total triglycerides in the test mice is calculated relative to the concentration of triglycerides in the control mice.

Data set [3] relates to LDL-c, VLDL-c and TG serum concentrations. Description: In Vivo Efficacy Model (LDL receptor-deficient mice). The settings on record: male LDL receptor-deficient mice, fourteen days, serum vs control group. As to the method: This assay measures the potency of compounds by measuring the reduction in low density lipoprotein cholesterol (LDL-c), very low density lipoprotein cholesterol (VLDL-c), and triglycerides (TG). Male, LDL receptor-deficient mice (29 weeks old, each approximately 30 g in weight) are used in this assay.
Feed the mice a standard mouse chow diet for two weeks prior to dosing. Prepare a test solution for oral gavage by suspend the compounds in acacia at 0.3, 1, and 3 mg/mL. Separate the mice into a test group and a control group. Thereafter at the first day of the third week dose the mice in the test group with the test solution for fourteen days, BID. Similarly dose the mice in the control group with just the vehicle without any of the test compound. Four hours after the last dose euthanized the mice with CO2. Immediately collect the blood via cardiac puncture. Isolate the serum to measure serum triglycerides as well as cholesterol in individual lipoprotein fractions. Separate the lipoprotein fractions by known HPLC methods. Determine the cholesterol concentration associated with each lipoprotein fraction by a colorimetric method (Roche Cholesterol/HP Reagent 11875540), using isolated lipoprotein fractions with known cholesterol concentration as standards. Results obtained at the highest dose, 30 mg/kg, BID, expressed as the percentage of change in comparison of the LDL-c, VLDL-c and TG serum concentrations of mice in the test group to those of mice n the control group.
To enable absorption of Example 2 at the 30 mg/kg dose, prepare that compound as 1:1 (w/w) dry mixture with hydroxypropyl methylcellulose prior to addition to acacia vehicle.

Where [4] appears, read: 30 mg/kg BID oral gavage in acacia.
The mark [5] stands for this setting: 30 mg/kg BID, compound as 1:1 (w/w) dry mixture with hydroxypropyl methylcellulose in acacia.

What is called IC50 is the midpoint of a concentration-inhibition curve. A word on the ED50: it is the dose at which the effect has come halfway, by size or by number of responders.

Take `O=C(NC1CCN(CCCCC2(C(=O)NCC(F)(F)F)c3ccccc3-c3ccccc32)CC1)c1ccccc1-c1ccc(C(F)(F)F)cc1` [lomitapide]: in the data set with liver fat content, the “increase in the liver fat content” value is given as 8 fold.

Take `CNS(=O)(=O)Cc1ccc(Oc2cc(CNc3ncc(Cl)cn3)nc(C)n2)cc1` [Example 1, 1-[4-[6-[[(5-Chloropyrimidin-2-yl)amino]methyl]-2-methyl-pyrimidin-4-yl]oxyphenyl]-N-methyl-methanesulfonamide]: the IC50 on human DGAT2 [1] is 91 nM. Further, on human DGAT2 [2], 150 nM corresponded to half-maximal inhibition (IC50). In addition, the median effective dose (ED50) in the data set on plasma triglycerides turned out to be 0.29 mg/kg. Further, in data set [3] (setting [4]), the “% change LDL-c” value is recorded as −51%, the “% change Triglycerides” value is −63% and the “% change VLDL-c” value was −75%.

Take `Cc1nc(CNc2ncc(Cl)cn2)cc(Oc2ccc(CS(N)(=O)=O)cc2)n1` [Example 2]: the IC50 on human DGAT2 [1] stood at 120 nM. This compound also returned an IC50 against human DGAT2 [2] of 150 nM. The compound further registered an ED50 with plasma triglycerides of 0.27 mg/kg. Also, in data set [3] (setting [5]), the “% change LDL-c” value is −55%, the “% change Triglycerides” value is recorded as −72% and the “% change VLDL-c” value is recorded as −82%.

The values above are taken from patent publication US9073901B2, “DGAT2 inhibitors” (Eli Lilly and Company, priority 2013, dated 2015).
